Laboratory results reported in PubChem BioAssay (NCI).
Values joined by “and” are separate entries in the source; they are usually repeats but may differ in a detail not shown here. Identical values can stand only once.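 1) Cells in 96-well plates. 2) Compound, 48 h, 5 concentrations. 3) Linear interpolation between surrounding doses. 4) Unreached endpoint = highest concentration. The concentration for 50% growth inhibition is given as GI50. TGI marks complete inhibition of growth.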

How the values were obtained:
Experiment in all cases: NCI tumour cell line growth inhibition, 48 h
[1] = system: KM20L2 colon
[2] = system: DMS 273 small cell lung
[3] = system: HOP-18 NSCLC
[4] = system: DLD-1 colon
[5] = system: XF 498 CNS
[6] = system: SNB-78 CNS
[7] = system: M19-MEL melanoma
[8] = system: MDA-N
[9] = system: RXF-631 renal
[10] = system: SN12K1 renal

Compound: N#C/C(=C/c1cccnc1)C(=O)c1ccccc1
- TGI [1]: > 100 µM
- TGI [2]: > 100 µM
- TGI [3]: > 100 µM
- TGI [4]: > 100 µM
- TGI [5]: > 100 µM
- TGI [6]: > 100 µM
- TGI [7]: > 100 µM

Compound: CCCCn1c2c(c3ccccc3c1=O)C(=O)c1ccccc1-2
- TGI [8]: > 100 µM

Compound: Cc1ccc(-c2ccc(Nc3c4ccccc4nc4ccccc34)cc2)cn1
- TGI [8]: 19.6 µM

Compound: N#Cc1c[nH]n2ccnc12
- TGI [8]: > 100 µM

Compound: O=C(CC/C(C/C(=N/O)c1ccc(F)cc1)=N/O)N(Cc1ccccc1)Cc1ccccc1
- TGI [1]: > 100 µM
- TGI [2]: > 100 µM
- TGI [3]: > 100 µM
- TGI [4]: > 100 µM
- TGI [7]: > 100 µM

Compound: O=C1C=CC(=O)C1(Br)Br
- TGI [8]: 27.5 µM

Compound: CCc1cccc(CC)c1NC(=S)NC(=O)c1ccc(Br)cc1
- TGI [1]: > 100 µM
- TGI [2]: > 100 µM
- TGI [3]: > 100 µM
- TGI [4]: > 100 µM
- TGI [8]: > 100 µM
- TGI [5]: > 100 µM
- TGI [6]: > 100 µM
- TGI [7]: > 100 µM
- TGI [9]: > 100 µM

Compound: CC1C=C(OC(=O)c2ccccc2)C(=O)C(n2cc(F)c(=O)n(C(=O)c3ccccc3)c2=O)O1 (configuration not stated)
- TGI [1]: 81.9 µM
- TGI [2]: > 100 µM
- TGI [3]: > 100 µM
- TGI [4]: > 100 µM
- TGI [5]: 73.3 µM
- TGI [6]: > 100 µM
- TGI [7]: > 100 µM
- TGI [9]: > 100 µM

Compound: C#CCN1CCN(C(=S)N/N=C(\C)c2ccccn2)CC1
- TGI [10]: 2.22 µM
- GI50 [1]: < 0.001 µM
- TGI [1]: 15 µM
- GI50 [2]: 0.0092 µM
- TGI [2]: 4.57 µM
- TGI [3]: 10.6 µM
- GI50 [4]: 0.00155 µM
- TGI [4]: 6.58 µM
- TGI [8]: 3.76 µM and 8.58 µM
- TGI [5]: 2.72 µM
- TGI [6]: 21.7 µM

Compound: Cc1ccc(S(=O)(=O)N2CCC3(C(/C=C/c4ccccc4)=Nc4ccccc43)C2c2ccccc2)cc1 (configuration not stated)
- TGI [1]: > 100 µM
- TGI [2]: > 100 µM
- TGI [4]: > 100 µM
- TGI [5]: > 100 µM
- TGI [6]: > 100 µM
- TGI [7]: > 100 µM

Compound: COC(=O)c1ccccc1NC(=O)C(=O)CC(=O)c1ccccc1NC1=CC(=O)C(=O)c2ccccc21
- TGI [1]: > 100 µM
- TGI [2]: 25.8 µM
- TGI [3]: 29.6 µM
- TGI [4]: 30.4 µM
- TGI [8]: 3.18 µM
- TGI [5]: 30.9 µM
- TGI [6]: > 100 µM
- TGI [7]: 4.49 µM
- TGI [9]: > 80.8 µM

Compound: O=C1CC2CCCCC2=C1O (configuration not stated)
- TGI [2]: > 100 µM
- TGI [4]: > 100 µM
- TGI [5]: > 100 µM
- TGI [6]: > 100 µM
- TGI [7]: > 100 µM
- TGI [9]: > 100 µM

Compound: CN(C)c1ccc(/C=C2\CNC/C(=C\c3ccc(N(C)C)cc3)C2=O)cc1
- TGI [1]: > 100 µM
- TGI [2]: 27.6 µM
- TGI [3]: 36.8 µM
- TGI [4]: 46.2 µM
- TGI [5]: 48.6 µM
- TGI [6]: > 100 µM
- TGI [7]: 46.8 µM
- TGI [9]: 60.7 µM

Compound: Cc1cc(N(CCC#N)CCC#N)ccc1/C=C(\NC(=O)/C=C/c1ccccc1)NC(=O)Nc1ccc(Cl)cc1
- TGI [2]: > 100 µM
- TGI [4]: > 100 µM
- TGI [5]: > 100 µM
- TGI [7]: > 100 µM

Compound: CCCCCCCCCCCCCC/C(C(=O)OC)=C(/O)C(=O)OCC
- TGI [2]: > 100 µM
- TGI [3]: 73.7 µM
- TGI [4]: > 100 µM
- TGI [5]: 53.8 µM
- TGI [6]: > 100 µM
- TGI [7]: > 100 µM
- TGI [9]: 93.6 µM

Compound: COc1ccc(NC(=O)C(=O)NNC(=O)c2sc(NNC(C)=O)nc2C)c([N+](=O)[O-])c1
- TGI [1]: > 100 µM
- TGI [2]: > 100 µM
- TGI [5]: > 100 µM
- TGI [6]: > 100 µM
- TGI [7]: > 100 µM

Compound: CC1CCCC(C(O)CC2CC(=O)N(c3ccccc3)C(=O)C2)C1=O (configuration not stated)
- TGI [1]: > 100 µM
- TGI [2]: > 100 µM
- TGI [3]: > 100 µM
- TGI [4]: > 100 µM
- TGI [6]: > 100 µM
- TGI [7]: > 100 µM

Compound: CC(=O)O[C@H]1[C@@H]2[C@@H]3[C@@H](C[C@H]1C)[C@@H](C)CO[C@@]1(C)CC/C=C(/C)C[C@@H]2O[C@@H]31
- TGI [1]: > 100 µM
- TGI [2]: > 100 µM
- TGI [3]: > 100 µM
- TGI [4]: > 100 µM
- TGI [5]: > 100 µM
- TGI [7]: > 100 µM
- TGI [9]: > 100 µM

Compound: CC1=C(C(=O)Nc2ccccc2C)C(c2ccc([N+](=O)[O-])cc2)C(C(=O)Nc2ccccc2C)=C(C)N1
- TGI [1]: > 100 µM
- TGI [2]: > 100 µM
- TGI [3]: > 100 µM
- TGI [4]: > 100 µM
- TGI [5]: > 100 µM
- TGI [7]: > 100 µM
- TGI [9]: > 100 µM

Compound: C(CCc1nnc2c(n1)CCCC2)Cc1nnc2c(n1)CCCC2
- TGI [8]: > 100 µM

Compound: O=C(O)CCC1COc2ccccc2O1 (configuration not stated)
- TGI [8]: > 10 µM

Compound: C=C(CN(CC(=C)C(=O)c1ccccc1)C(C)(C)C)C(=O)c1ccccc1
- TGI [1]: 37.5 µM
- TGI [2]: 32.4 µM
- TGI [3]: 14.3 µM
- TGI [4]: 10.2 µM
- TGI [5]: 16 µM
- TGI [6]: 53.7 µM
- TGI [7]: 30 µM

Compound: Cc1ccc(NC(=O)CC(=O)n2nc(-c3ccccc3)c(N=Nc3ccc(Cl)cc3)c2-c2ccccc2)cc1
- TGI [1]: > 100 µM
- TGI [2]: > 100 µM
- TGI [3]: > 100 µM
- TGI [4]: 54.4 µM
- TGI [6]: > 100 µM
- TGI [7]: 60.4 µM
- TGI [9]: > 100 µM

Compound: CC12O[C@H](c3ccccc3)[C@H](c3ccccc3)N1C(=O)C1(C(=O)OCc3ccccc3)CC12 (some centres not stated)
- TGI [1]: > 100 µM
- TGI [2]: > 100 µM
- TGI [4]: > 100 µM
- TGI [5]: > 100 µM
- TGI [7]: > 100 µM
- TGI [9]: > 100 µM

Compound: FC(F)(F)c1ccc(C=NC23CC4CC(CC(C4)C2)C3)cc1
- TGI [1]: > 100 µM
- TGI [2]: > 100 µM
- TGI [6]: > 100 µM

Compound: COc1cc(-c2oc3c(OC)c(OC)cc(O)c3c(=O)c2OC)ccc1O
- TGI [1]: > 100 µM
- TGI [4]: > 100 µM
- TGI [8]: > 50 µM
- TGI [5]: 16.1 µM
- TGI [6]: > 100 µM
- TGI [9]: > 100 µM

Compound: CCc1cccc(C(C)C)c1NC(=O)C(=O)C(C(=O)C(=O)OC)c1nc2ccccc2[nH]c1=O (configuration not stated)
- TGI [1]: > 100 µM
- TGI [2]: > 100 µM
- TGI [3]: > 100 µM
- TGI [5]: > 100 µM
- TGI [6]: > 100 µM
- TGI [7]: > 100 µM
- TGI [9]: > 100 µM

Compound: CCC(=O)OC1CCn2c1nc1c2C(=O)C(C)=C(N2CC2)C1=O (configuration not stated)
- TGI [1]: 0.831 µM
- TGI [2]: 0.121 µM
- TGI [3]: 0.228 µM
- TGI [4]: 1.58 µM
- TGI [8]: 0.181 µM
- TGI [5]: 0.0973 µM
- TGI [6]: 1.41 µM
- TGI [7]: 0.345 µM

Compound: CO[C@H]1[C@H](O)[C@H](O[C@H]2CC[C@@]3(C)[C@H](CC[C@@H]4[C@@H]3CC[C@]3(C)[C@@H](C5=CC(=O)OC5)CC[C@]43O)C2)O[C@@H](C)[C@@H]1O
- TGI [1]: 0.0118 µM
- TGI [2]: 0.00303 µM
- TGI [3]: 0.00382 µM
- TGI [4]: 0.00767 µM
- TGI [8]: < 0.0001 µM
- TGI [7]: 0.016 µM
- GI50 [9]: > 100 µM
- TGI [9]: > 100 µM

Compound: N/N=C1\c2ccccc2C2/C(=N\N)c3ccccc3C12 (configuration not stated)
- TGI [1]: > 100 µM
- TGI [2]: > 100 µM
- TGI [3]: > 100 µM
- TGI [4]: > 100 µM
- TGI [7]: > 100 µM

Compound: C=CCNC1=C(C(=O)OCC)C(=O)CO1
- TGI [1]: > 100 µM
- TGI [2]: > 100 µM
- TGI [4]: > 100 µM
- TGI [5]: > 100 µM
- TGI [6]: > 100 µM
- TGI [7]: > 100 µM
- TGI [9]: > 100 µM

Compound: CCC(C(=O)[O-])C(=O)[O-].CCC(C(=O)[O-])C(=O)[O-].N.N.NCCCCCN.[Pt+4].[Pt+4]
- GI50 [1]: > 100 µM
- TGI [1]: > 100 µM
- GI50 [2]: 95.8 µM
- TGI [2]: > 100 µM
- GI50 [3]: > 100 µM
- TGI [3]: > 100 µM
- GI50 [4]: > 100 µM
- TGI [4]: > 100 µM
- GI50 [6]: > 100 µM
- TGI [6]: > 100 µM

Compound: Cc1ccc(NS(=O)(=O)c2cc(C(C)(C)C)ccc2OCCOCCOCCOc2ccc(C(C)(C)C)cc2S(=O)(=O)Nc2ccc(C)cc2)cc1
- TGI [2]: > 100 µM
- TGI [3]: > 100 µM
- TGI [4]: > 100 µM
- TGI [6]: > 100 µM
- TGI [7]: > 100 µM

Compound: Cc1ccc(S(=O)(=O)CNC(=S)CCCC(=S)NCS(=O)(=O)c2ccc(C)cc2)cc1
- TGI [1]: > 100 µM
- TGI [2]: > 100 µM
- TGI [4]: > 100 µM
- TGI [5]: > 100 µM
- TGI [6]: > 100 µM
- TGI [7]: > 100 µM
- TGI [9]: > 100 µM

Compound: COC(=O)c1ccc(=O)c2nc3/c(=C/O)c(O)cc(=O)c3[nH]c12
- TGI [8]: 24.6 µM

Compound: Cc1cc(O)c2c(c1)C(=O)c1cc(O)cc(O)c1C2=O
- TGI [1]: > 100 µM
- TGI [2]: 62.2 µM
- TGI [3]: 37 µM
- TGI [4]: > 100 µM
- TGI [5]: 86.7 µM
- TGI [6]: > 100 µM
- TGI [9]: > 100 µM

Compound: O=C([O-])c1ccc2c(c1)-c1nc-2nc2[n-]c(nc3nc(nc4[n-]c(n1)c1ccc(C(=O)[O-])cc41)-c1cc(C(=O)[O-])ccc1-3)c1ccc(C(=O)[O-])cc21.[Fe+2]
- GI50 [1]: > 50 µM
- TGI [1]: > 50 µM
- GI50 [2]: > 43.9 µM
- TGI [2]: > 50 µM
- GI50 [3]: > 50 µM
- TGI [3]: > 50 µM
- GI50 [4]: > 32.1 µM
- TGI [4]: > 50 µM
- GI50 [5]: > 50 µM
- TGI [5]: > 50 µM
- GI50 [6]: > 50 µM
- TGI [6]: > 50 µM
- GI50 [7]: > 31.8 µM
- TGI [7]: > 50 µM
- GI50 [9]: > 50 µM
- TGI [9]: > 50 µM

Compound: Cc1c(O)c(=O)ccn1C1OC(CO)C(O)C1O (configuration not stated)
- TGI [1]: > 100 µM
- TGI [2]: > 100 µM
- TGI [4]: > 100 µM
- TGI [5]: > 100 µM
- TGI [6]: > 100 µM
- TGI [7]: > 100 µM
